Assay results from ChEMBL document CHEMBL1201862, “PubChem BioAssay data set” (2004).
The source made the active and inactive calls.

Assays:
[1] = target: T1, Short transient receptor potential channel 4 (Mus musculus, UniProt Q9QUQ5); experiment: mouse TRPC4 channel inhibitors, dose response, cell-based, HEK293 TRPC4/mu-opioid, Fluo-4 calcium (AID 434942); format: functional;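 also: potency of inhibitors blocking the TRPC4 calcium response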
T1 sequence (Q9QUQ5 whole entry): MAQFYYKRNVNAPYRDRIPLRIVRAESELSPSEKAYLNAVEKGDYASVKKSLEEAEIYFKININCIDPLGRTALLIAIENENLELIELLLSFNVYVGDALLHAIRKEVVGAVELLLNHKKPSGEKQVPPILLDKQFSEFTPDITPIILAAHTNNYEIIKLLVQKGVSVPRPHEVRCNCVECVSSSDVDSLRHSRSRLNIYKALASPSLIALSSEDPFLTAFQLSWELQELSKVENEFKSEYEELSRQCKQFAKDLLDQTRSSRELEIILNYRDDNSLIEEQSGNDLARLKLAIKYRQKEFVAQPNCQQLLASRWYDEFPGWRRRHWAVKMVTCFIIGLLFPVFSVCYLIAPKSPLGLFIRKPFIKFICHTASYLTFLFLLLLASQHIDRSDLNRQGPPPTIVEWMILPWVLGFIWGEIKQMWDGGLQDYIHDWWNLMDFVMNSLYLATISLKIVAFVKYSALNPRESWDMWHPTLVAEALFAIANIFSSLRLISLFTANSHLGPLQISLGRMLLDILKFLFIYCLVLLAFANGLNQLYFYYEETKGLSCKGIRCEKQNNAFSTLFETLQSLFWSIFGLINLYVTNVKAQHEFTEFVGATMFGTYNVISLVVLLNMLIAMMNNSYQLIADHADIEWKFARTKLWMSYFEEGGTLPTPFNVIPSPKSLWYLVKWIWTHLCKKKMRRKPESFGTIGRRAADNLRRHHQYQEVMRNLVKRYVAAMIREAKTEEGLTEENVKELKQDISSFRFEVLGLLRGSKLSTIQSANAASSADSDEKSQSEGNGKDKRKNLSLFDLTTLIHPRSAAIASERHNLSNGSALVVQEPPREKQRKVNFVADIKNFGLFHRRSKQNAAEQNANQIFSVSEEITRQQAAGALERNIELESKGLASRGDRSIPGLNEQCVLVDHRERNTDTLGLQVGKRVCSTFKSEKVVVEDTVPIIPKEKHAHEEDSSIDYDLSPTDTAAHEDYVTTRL

BJ [2] = experiment: cytotoxicity toward BJ-TERT fibroblasts, dose response, cell-based, RAS-independent, luminescence (AID 1933); format: functional; settings: Homo sapiens
BJ [3] = experiment: cytotoxicity toward BJ-TERT-LT-ST fibroblasts, dose response, cell-based, RAS-independent, luminescence (AID 1935); format: functional; settings: Homo sapiens;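 also: BJ fibroblasts immortalized with TERT plus LT and ST oncogenes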
[4] = growth suppression of PTEN-null colon cells, dose response, cell-based, HCT116 PTEN knockout (AID 1047); format: functional;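 also: HCT116 colon tumor cells with PTEN knocked out; cells exposed to compound for 60 hours before readout; potency for loss of cell viability measured by luminescence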
[5] = growth suppression of beta-catenin-knockout colon cells, dose response, cell-based, HCT116, human colon tumor (AID 1045); format: functional;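 also: HCT116 colon tumor cells with beta catenin knocked out; cells exposed to compound for 60 hours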
INS1 = experiment: beta cell apoptosis inhibitors, cytokine rescue, dose response, luminescence, retest (AID 449756); format: functional, cell-based; settings: Rattus norvegicus;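 also: cell death triggered by IL-1 beta plus TNF-alpha plus IFN-gamma mixture; protective hits raise ATP signal compared with cytokine alone wells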

Row | EC50 [1] | Compound | EC50 (BJ [2]) | EC50 (BJ [3]) | EC50 [4] | EC50 [5] | AC50 (INS1)
1 | 15 µM (active) | O=[N+]([O-])c1ccc(O)c(C2=NNC(c3ccccc3F)C2)c1 (stereo unspecified) |  |  |  |  | 
2 |  | Cc1oc2c(c1C(=O)N1CCC(C)CC1)C(=O)c1ccccc1C2=O | 17.6 µM (active) | > 75 µM (not active) | 1.92 µM (active) | 1.86 µM (active) | 2.01 µM (active)
